The values that follow come from patent publication US10865213B2, “Max binders as MYC modulators and uses thereof” (Massachusetts Institute of Technology, priority 2016, dated 2020).

Broadly, the solubility is how much of the substance goes into solution per volume. What is called half-life is the time in which the quantity being followed falls by half. Low readings indicate rapid decline, high ones slow decline.

Values after ≈ are worked out from the molar mass of the structure shown. Read-outs that look alike come from different tables or passages of the source.

One series has as its system P493-6 Myc OFF cells. Kind of series: Cell viability, CELL TITER GLO, P493-6 Myc OFF. It counts as cell-based, human. The text has this:
(§1) FIGS. 3A to 3B show exemplary results of an assay of cell viability and the selectivity of Compound 1 for cells expressing Myc and non-Myc expressing cells. Compound 1 affected cell viability after treatment with Compound 1 for 3 days, as measured using CELL TITER GLO (Promega) in a cancer cell line (P493-6, derived from human B-cells), where Myc is ON (FIG. 3A) or Myc is OFF (FIG. 3B). Results were expressed as a mean+/−SEM (n=3). RLU: Relative Luminescence Units.
(§2) The selectivity of Compound 1 for cells expressing Myc over non-Myc expressing cells in cancer cell line P493-6 (engineered cell line derived from human B-cells) was determined. Adding doxycycline to P493-6 growth media shuts off Myc transcription. Exemplary results are shown in FIGS. 3A to 3B, where cell viability was assessed by CELL TITER GLO assay (Promega). FIG. 3A depicts the assay results for cells expressing Myc, and FIG. 3B depicts the assay results for non-Myc expressing cells. […] The selectivity of other compounds described herein in cancer cell line cancer cell line P493-6 was also determined, and exemplary results are shown in Table 2, where viability was assessed by CELL TITER GLO assay (Promega).
(In general: ATP-based viability assays read luminescence as a measure of living cells.)

Another series has as its system P493-6 Myc ON cells. The experiment in a line: Cell viability, CELL TITER GLO, P493-6 Myc ON. The format is cell-based, human.
Description: as §1, §2

Another series deals with c-Myc. The experiment in a line: c-Myc reporter gene assay (Qiagen), Firefly/Renilla ratio, HEK293T cells. It counts as cell-based. As to the method:
The activity of Compound 1 against Myc was measured as a Firefly/Renilla ratio, using the Myc reporter assay (Qiagen) in HEK293T cells after treatment with Compound 1 for 16 hours. Results are expressed as a mean+/−SD (n=3). SD: standard deviation.
Select compounds described herein that were SMM assay positives were evaluated in several versions of a c-Myc reporter gene assay, including a commercial assay from Qiagen. The compounds' activities against c-Myc were measured as a Firefly/Renilla ratio, using the Myc reporter assay (Qiagen) in HEK293T cells after treatment with the compounds for 16 hours.
On the technique in general: A reporter such as luciferase makes a cellular process visible.

Series [1] is described as follows: Aqueous solubility at 25° C. It counts as physicochemical.
Series [2] in a line: Intrinsic clearance, liver microsomes. The format is in vitro ADME. The following applies: Intrinsic clearance (liver microsomes, human). Background: Liver microsomes are a subcellular fraction often used to study metabolism.
For series [3], the system named is ST486, CA46, NCI-H1963, GBM4 cancer cell lines. Kind of series: Cell viability, CELL TITER GLO, cancer cell lines ST486, CA46, NCI-H1963, GBM4. It counts as cell-based. The following applies: 3 days treatment (4 days GBM4). As to the method:
Compound 1 affected cell viability after treatment with Compound 1 for 3 days (and 4 days for GBM4 and NHA), as measured using CELL TITER GLO (Promega) in 4 different cancer cell lines: ST486 (Burkitt's lymphoma; FIG. 2), CA46 (Burkitt's lymphoma; FIG. 2), NCI-H1963 (small cell lung cancer; FIG. 2), and GBM4 (glioblastoma; FIG. 2). The cell viability of normal human astrocytes (NHA) was also assayed. Results were expressed as a mean+/−SEM (n=2). The effect of Compound 1 on cell viability in several cancer cell lines and normal human astrocytes (NHA) was determined. The cancer cell lines employed in the assay included those corresponding to Burkitt's lymphoma (ST486 and CA46), small cell lung cancer (NCI-H1963), and glioblastoma (GBM4). The cell viability of normal human astrocytes (NHA) was also assayed. Exemplary results are shown in FIG. 2, where viability was assessed by CELL TITER GLO assay (Promega). […] The effects of other compounds described herein on cell viability in several cancer cell lines were also determined, and exemplary results are shown in Table 2, where viability was assessed by CELL TITER GLO assay (Promega).

The target in another series is c-Myc/Max heterodimer (Homo sapiens, UniProt P61244). The experiment in a line: Electrophoretic mobility shift assay, c-Myc/Max heterodimer. It counts as binding. The text has this: (§3) This leads to a hypothesize that KI-MS2-008 stabilizes the Max homodimer.
Sequence of c-Myc/Max heterodimer (P61244 whole entry, one chain of several): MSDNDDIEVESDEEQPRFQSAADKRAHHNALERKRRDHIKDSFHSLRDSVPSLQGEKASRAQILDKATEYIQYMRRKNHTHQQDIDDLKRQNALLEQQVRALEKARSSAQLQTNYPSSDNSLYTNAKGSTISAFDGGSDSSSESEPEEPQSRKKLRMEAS
A further series deals with ST-486. Kind of series: Viability assay in ST-486. It counts as cell-based. The following applies: Homo sapiens, ST486; ST-486, non-engineered cell line.
The subject of another series is Myc. The experiment in a line: Myc protein levels. It counts as cell-based. The following applies: recovered by proteasome inhibition.
The next series has as its system MYC-driven T-ALL model. The experiment in a line: MYC-driven T-ALL / lymphoma model, Luc-labeled cells transplanted into NSG mice. The format is in vivo.
Another series has as its system Myc transcript. Kind of series: qPCR of Myc transcript levels. It counts as cell-based.
For series [4], the target named is T1, Max homodimer (Homo sapiens, UniProt P61244). Kind of series: EMSA with recombinant Max, homodimer binding to DNA.
T1 sequence (P61244 whole entry): as the sequence (P61244 whole entry, one chain of several) above
Description: as §3

Series [5] has as its target T1, Max homodimer. The experiment in a line: fPLC quantification of Max monomer vs. Max homodimer. It counts as binding. The following applies: monomer vs. homodimer populations.
Description: as §3

A further series has as its system P3HR1. The experiment in a line: Viability assay in P3HR1. It counts as cell-based. The following applies: Homo sapiens, P3HR-1; P3HR1, non-engineered cell line.
[6] abbreviates: Table 3, read-out: IC50 Myc OFF.
Where [7] appears, read: Table 3, read-out: IC50 Reporter assay.
Setting [8] is: Homo sapiens, HEK-293T, HEK293T cells, 16 hours, Table 2, read-out: c-Myc reporter assay IC50.
[9] abbreviates: Homo sapiens, HEK-293T, read-out: IC50 value in Myc reporter assay.

With `O=C1N(CCS(=O)(=O)c2ccccc2)Cc2ccccc2[C@@H]2OC(c3ccc(OCCCO)cc3)=N[C@]12Cc1ccccc1` (single isomer, unassigned) [15^a], the IC50 in the series on P493-6 Myc OFF cells (setting [6]) is greater than 50 µM; with P493-6 Myc ON cells (Table 3, listed as 15^b, read-out: IC50 Myc ON) it was 8.49 µM; in the series with P493-6 Myc ON cells (Table 3, listed as 15^c, read-out: IC50 Myc ON), 16.6 µM; in the series on P493-6 Myc ON cells (Table 3, read-out: IC50 Myc ON), 14.5 µM; with c-Myc (HEK293T cells, 16 hours, Table 2, read-out: c-Myc reporter assay IC50), 4.28 µM; with c-Myc (Table 3, listed as 15^b, read-out: IC50 Reporter assay), 4.74 µM. The IC50 in the series on c-Myc (Table 3, listed as 15^c, read-out: IC50 Reporter assay) came to 4.77 µM; in the series with c-Myc (setting [7]), 11.7 µM.
Consider `O=C1N(CCS(=O)(=O)c2ccccc2)Cc2ccccc2[C@@H]2OC(c3ccc(OCCCO)cc3)=N[C@]12Cc1ccccc1` [Compound 1], for which the IC50 was 58.1 µM with P493-6 Myc OFF cells (Homo sapiens, P493-6, CELL TITER GLO, Table 2, read-out: P493-6 Myc OFF Viability in cells); 6.8 µM in the series on P493-6 Myc ON cells (Homo sapiens, P493-6, CELL TITER GLO, Table 2, read-out: P493-6 Myc ON Viability in cells); 1.99 µM in the series on c-Myc (setting [8]); 2.77 µM with c-Myc (setting [9]). Moreover, the solubility in [1] (Aqueous solubility (simulated gastric fluid)) was 51.2 µM (≈ 31.3 µg/mL); in series [1] (aqueous buffer, Aqueous solubility (PBS, pH 7.4)) it was 9.2 µM (≈ 5.62 µg/mL); in [1] (fassgf or other biorelevant, Aqueous solubility (simulated intestinal fluid)) it was 200 µM (≈ 122 µg/mL). Further, in series [2], the half-life is 21 min. In addition, the “Effect on cell viability” value in series [3] is on record as “demonstrated an effect in cell viability”. In addition, the “Selectivity for cells expressing Myc over non-Myc expressing cells” value in the series with P493-6 Myc ON cells (P493-6, Myc ON vs. Myc OFF (doxycycline)) is recorded as “demonstrated a selectivity for cells expressing Myc”.
Turning to `O=C1NCc2ccccc2[C@@H]2OC(c3ccccc3)=N[C@H]12` [Compound 1a], the IC50 in the series with c-Myc (setting [7]) is greater than 50 µM.
As for `O=C1NCc2ccccc2[C@@H]2OC(c3ccccc3)=N[C@]12Cc1ccccc1` [Compound 2a], the IC50 in the series with P493-6 Myc OFF cells (setting [6]) is greater than 50 µM; in the series with P493-6 Myc ON cells (Table 3, read-out: IC50 Myc ON) it was greater than 50 µM; in the series with c-Myc (setting [7]), 16.8 µM.
In the case of `O=C1N(CCS(=O)(=O)c2ccccc2)Cc2ccccc2[C@@H]2OC(c3ccccc3)=N[C@]12Cc1ccccc1` [Compound 3a], the IC50 is greater than 50 µM in the series with P493-6 Myc OFF cells (setting [6]); 11.4 µM in the series with P493-6 Myc ON cells (Table 3, read-out: IC50 Myc ON); 6.19 µM in the series with c-Myc (setting [7]).
On the same counts, the results for `C=CCN1Cc2ccccc2[C@@H]2OC(c3ccccc3)=N[C@]2(Cc2ccccc2)C1=O` [Compound 4a] are greater than 50 µM, 31.8 µM and 7.67 µM.
Regarding `O=C(CCCCC1SCC2NC(=O)NC21)NCCOCCOCCNC(=O)OCCCOc1ccc(C2=N[C@]3(Cc4ccccc4)C(=O)N(CCS(=O)(=O)c4ccccc4)Cc4ccccc4[C@@H]3O2)cc1` (stereo partly drawn) [Compound 5], the IC50 in the series with c-Myc (setting [8]) was 5.38 µM; in the series on c-Myc (setting [9]), 5.4 µM.
Regarding `COC(=O)[C@@]1(Cc2ccccc2)N=C(c2ccccc2)O[C@H]1c1ccccc1CN=[N+]=[N-]` [Compound 6, Methyl (4S,5S)-5-(2-(azidomethyl)phenyl)-4-benzyl-2-phenyl-4,5-dihydrooxazole-4-carboxylate], the IC50 with c-Myc (setting [8]) was found to be 4.67 µM.
Consider `CCOC(=O)CN1Cc2ccccc2[C@@H]2OC(c3ccccc3)=N[C@]2(Cc2ccccc2)C1=O` [Compound 7a], for which the IC50 with P493-6 Myc OFF cells (setting [6]) is greater than 50 µM; with P493-6 Myc ON cells (Table 3, read-out: IC50 Myc ON), 39.3 µM; in the series on c-Myc (setting [7]), 3.38 µM.
`O=C(O)CN1Cc2ccccc2[C@@H]2OC(c3ccccc3)=N[C@]2(Cc2ccccc2)C1=O` [Compound 8a]: the IC50 with P493-6 Myc OFF cells (setting [6]) is greater than 50 µM; in the series with P493-6 Myc ON cells (Table 3, read-out: IC50 Myc ON), greater than 50 µM; in the series with c-Myc (setting [7]) it was greater than 50 µM.
With `O=C1N(CCO)Cc2ccccc2[C@@H]2OC(c3ccccc3)=N[C@]12Cc1ccccc1` [Compound 10a], the IC50 with c-Myc (setting [7]) worked out at 2.15 µM.
As to `C#CCNC(=O)CN1Cc2ccccc2[C@@H]2OC(c3ccccc3)=N[C@]2(Cc2ccccc2)C1=O` [Compound 11a], in the series with c-Myc (setting [7]), the IC50 came out at 10.1 µM.
The same measure, in the same setting: to `C#CCN(CC(=O)NCCNC(=O)CN1Cc2ccccc2[C@@H]2OC(c3ccccc3)=N[C@]2(Cc2ccccc2)C1=O)C(=O)CCC1(C)N=N1` [Compound 12a] belongs 18.7 µM.
On to `O=C1N(CCS(=O)(=O)c2ccccc2)Cc2ccccc2[C@@H]2OC(c3ccccc3)=N[C@]12Cc1ccccc1` [KI-MS2-008], for which, at c-Myc/Max heterodimer, the “Disruption of c-Myc/Max heterodimer (EMSA)” value was “does not disrupt the c-Myc/Max heterodimer”. The IC50 with ST-486 worked out at 18.7 µM; in the series with P3HR1 it was 51.1 µM. Also, the Myc protein levels result in the series on Myc is “decreases Myc protein levels”. Moreover, the Tumor volume result with MYC-driven T-ALL model is reported as “impacts tumor volume”. Further, the Myc transcript levels result with Myc transcript is recorded as “decreases Myc transcript levels”. Moreover, the “Max homodimer binding to DNA (EMSA)” value on Max homodimer [4] was “dose-dependent increase of Max homodimer binding to DNA”. At Max homodimer [5], the “Induced dimerization of the Max homodimer” value was found to be 9.9%.
